Earlier results, collected in US20180028451A1, “IMMEADIATE RELEASE ORAL TABLET” (Boehringer Ingelheim International GmbH, priority 2015, published 2018).

Settings: physiological pH range of the gastro-intestinal tract between pH 1 to 7

CCCc1nc2c(C)cc(-c3nc4ccccc4n3C)cc2n1Cc1ccc(-c2ccccc2C(=O)O)cc1 [Telmisartan, 4′-[2-n-propyl-4-methyl-6-(1-methylbenzimidazol-2-yl)-benzimidazol-1-ylmethyl]-biphenyl-2-carboxylic acid]
solubility in aqueous systems: very poor solubility
